How the values were obtained:
Type in all cases: cell-based
[1] = test system: DMS-114 (FGFR1 overexpression) cells; experiment: Cell proliferation assay (CellTiterGlo), DMS-114 cells; details: 72 hours, inhibition of cell growth, intracellular ATP (CellTiterGlo)
Source text: (§1) The following is a non-limiting example that describes a cell proliferation assay used to determine the biological activity of the compounds of the present disclosure. More specifically, the assay as used to assess the ability of the compounds to inhibit cell proliferation.
(§2) Briefly, SNU-16 (FGFR2-amplification) cells, were resuspended at 18,520c/ml mL in RPMI containing 10% Heat Inactivated FBS, 1% L-glutamine and dispensed in duplicate (463c/well) into 384 well plates. UM-UC-14 (FGFR3-S249C) cells were resuspended at 40.000c/ml mL in RPMI containing 10% Heat Inactivated FBS, 1% L-glutamine and dispensed in duplicate (1000c/well) into 384 well plates. DMS-114 (FGFR1 overexpression) cells and were resuspended at 40,000c/ml mL in RPMI containing 10% Heat Inactivated FBS, 1% L-glutamine and dispensed in duplicate (1000c/well) into 384 well plates. RT-112 (FGFR3-Tacc3 fusion) cells were resuspended at 40,000c/ml mL in RPMI containing 10% Heat Inactivated FBS, 1% L-glutamine and dispensed in duplicate (1000c/well) into 384 well plates. To determine the effect of the compounds of the present disclosure on cell proliferation, SNU-16, UM-UC-14, DMS-114 and RT112 cells were incubated for 72 hours in the presence of vehicle control (DMSO) or a compound of the present disclosure at varying concentrations. Inhibition of cell growth was subsequently determined by luminescent quantification (Envision by Perkin Elmer) of intracellular ATP content using CellTiterGlo (Promega), according to the protocol provided by the manufacturer. To determine the IC50 values, the vehicle-treated cells were normalized as viable cells and analyzed using the CDD Vault software (Collaborative Drug Discovery, Burlingame, CA).

[2] = test system: SNU-16 (FGFR2-amplification) cells; experiment: Cell proliferation assay (CellTiterGlo), SNU-16 cells; details: Homo sapiens, SNU-16, 72 h, inhibition of cell growth, intracellular ATP (CellTiterGlo)
Source text: as §1, §2

[3] = test system: UM-UC-14 (FGFR3-S249C) cells; experiment: Cell proliferation assay (CellTiterGlo), UM-UC-14 cells; details: inhibition of cell growth, intracellular ATP (CellTiterGlo)
Source text: as §1, §2

[4] = test system: RT-112 (FGFR3-Tacc3 fusion) cells; experiment: Cell proliferation assay (CellTiterGlo), RT-112 cells; details: RT112 cells, inhibition of cell growth, intracellular ATP (CellTiterGlo)
Source text: as §1, §2

Compound	IC50 ([1]; Homo sapiens)	IC50 [2]	IC50 ([3]; UMUC14, 72 h)	IC50 ([4]; Homo sapiens, RT-112, 72 h)	IC50 [1]	IC50 ([3]; 72 hours)	IC50 ([4]; 72 hours)
Cc1nc2ccc(Oc3ccc4ncc(-c5cnn(CC6CCN(C)CC6)c5)nc4c3F)cc2[nH]1 [Compound 36]	≥ 400 nM	100 to 400 nM	100 to 400 nM	100 to 400 nM	–	–	–
Cc1nc2ccc(Oc3ccc4ncc(-c5cnn(CC6CCN(S(=O)(=O)CC(C)C)CC6)c5)nc4c3Cl)cc2[nH]1 [Compound 37]	100 to 400 nM	20 to 100 nM	20 to 100 nM	20 to 100 nM	–	–	–
C=CC(=O)N1CCC(Cn2cc(-c3cnc4ccc(Oc5ccc6nc(C)[nH]c6c5)c(Cl)c4n3)cn2)CC1 [Compound 38]	100 to 400 nM	20 to 100 nM	20 to 100 nM	< 20 nM	–	–	–
C=CC(=O)N1CCC(CCn2cc(-c3cnc4ccc(Oc5ccc6nc(C)[nH]c6c5)c(Cl)c4n3)cn2)CC1 [Compound 39]	100 to 400 nM	20 to 100 nM	20 to 100 nM	20 to 100 nM	–	–	–
Cc1nc2ccc(Oc3ccc4ncc(-c5cnn(CC6CCN(S(=O)(=O)C(C)C)CC6)c5)nc4c3Cl)cc2[nH]1 [Compound 40]	≥ 400 nM	20 to 100 nM	20 to 100 nM	20 to 100 nM	–	–	–
Cc1nc2c(C#N)cc(Oc3ccc4ncc(-c5cnn(CC6CCN(C)CC6)c5)nc4c3Cl)cc2[nH]1 [Compound 41]	≥ 400 nM	100 to 400 nM	100 to 400 nM	100 to 400 nM	–	–	–
Cc1nc2ccc(Oc3ccc4ncc(-c5cnn(CC6CCN(S(=O)(=O)C7CC7)CC6)c5)nc4c3Cl)cc2[nH]1 [Compound 42]	≥ 400 nM	20 to 100 nM	20 to 100 nM	20 to 100 nM	–	–	–
Cc1nc2ccc(Oc3ccc4ncc(-c5cnn(CC6CCN(S(C)(=O)=O)CC6)c5)nc4c3Cl)cc2[nH]1 [Compound 43]	≥ 400 nM	20 to 100 nM	20 to 100 nM	20 to 100 nM	–	–	–
Cc1nc2ccc(Oc3ccc4ncc(-c5cnn(CC6CC6)c5)nc4c3Cl)cc2[nH]1 [Compound 44]	≥ 400 nM	100 to 400 nM	100 to 400 nM	100 to 400 nM	–	–	–
Cc1nc2ccc(Oc3ccc4ncc(-c5cnn(CC6CCN(C)CC6)c5)nc4c3C)cc2[nH]1 [Compound 45]	100 to 400 nM	20 to 100 nM	20 to 100 nM	20 to 100 nM	–	–	–
COc1cc(Oc2ccc3ncc(-c4cnn(CC5CCN(C)CC5)c4)nc3c2Cl)cc2[nH]c(C)nc12 [Compound 46]	≥ 400 nM	100 to 400 nM	≥ 400 nM	100 to 400 nM	–	–	–
Cc1nc2ccc(Oc3cc4nc(-c5cnn(CC6CCOCC6)c5)cnc4cc3Cl)cc2[nH]1 [Compound 48]	≥ 400 nM	≥ 400 nM	≥ 400 nM	≥ 400 nM	–	–	–
Cc1nc2ccc(Oc3cc4nc(-c5cnn(CC6CCN(C)CC6)c5)cnc4cc3F)cc2[nH]1 [Compound 49]	≥ 400 nM	≥ 400 nM	≥ 400 nM	≥ 400 nM	–	–	–
Cc1nc2ccc(Oc3cc4nc(-c5cnn(CC6CCN(C)CC6)c5)cnc4cc3C)cc2[nH]1 [Compound 50]	≥ 400 nM	≥ 400 nM	≥ 400 nM	≥ 400 nM	–	–	–
Cc1nc2ccc(Oc3ccc4ncc(-c5cn[nH]c5)nc4c3Cl)cc2[nH]1 [Compound 51]	≥ 400 nM	≥ 400 nM	≥ 400 nM	100 to 400 nM	–	–	–
Cc1nc2ccc(Oc3ccc4ncc(-c5c(C)nn(CC6CCN(C)CC6)c5C)nc4c3Cl)cc2[nH]1 [Compound 52]	≥ 400 nM	100 to 400 nM	100 to 400 nM	100 to 400 nM	–	–	–
Cc1nc2ccc(Oc3ccc4ncc(-c5cnn(CCC6CCN(C)CC6)c5)nc4c3)cc2[nH]1 [Compound 55]	≥ 400 nM	100 to 400 nM	100 to 400 nM	100 to 400 nM	–	–	–
Cc1nc2ccc(Oc3ccc4ncc(-c5cnn(CC6CCOCC6)c5)nc4c3Cl)cc2[nH]1 [Compound 59]	–	< 20 nM	–	–	100 to 400 nM	< 20 nM	< 20 nM
Cc1nc2c(C#N)cc(Oc3ccc4ncc(-c5cnn(CC6CCOCC6)c5)nc4c3)cc2[nH]1 [Compound 60]	≥ 400 nM	≥ 400 nM	≥ 400 nM	≥ 400 nM	–	–	–
